# In patent US20090048269A1 (AstraZeneca AB, priority 2007, published 2009):
# Target: T1, human ALK5 (Homo sapiens, UniProt P36897)
# T1 sequence (P36897 162-503): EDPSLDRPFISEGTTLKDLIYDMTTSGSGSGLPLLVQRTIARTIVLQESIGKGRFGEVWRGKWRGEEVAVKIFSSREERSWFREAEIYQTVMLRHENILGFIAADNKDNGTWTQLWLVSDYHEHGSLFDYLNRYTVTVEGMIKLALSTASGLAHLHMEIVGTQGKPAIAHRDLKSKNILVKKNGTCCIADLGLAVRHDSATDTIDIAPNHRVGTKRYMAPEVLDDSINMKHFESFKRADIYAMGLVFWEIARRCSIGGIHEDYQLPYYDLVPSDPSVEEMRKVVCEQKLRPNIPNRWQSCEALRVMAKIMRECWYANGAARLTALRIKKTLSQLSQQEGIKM
# Assay: ALK5 Enzyme Assay 2 (fluorescence polarisation probe displacement)
# Assay type: binding
# Parameters: 6His tagged human ALK5 (residues162-503) was grown and purified from insect cells; 6His; made in house; host or cells: insect cells
# Details: read-out: EAA2: activity (μM) using Enzyme Assay 2
# Experimental: The ability of a compound to bind and inhibit ALK5 can be measured by its capacity to displace a probe molecule from recombinant ALK5 in an in vitro assay. Provided the probe molecule is derivatised with a fluorescent probe or is fluorescent itself, the binding affinity can be measured using Fluorescence Polarisation (FP). […] Assay measurements were performed in 50 mM HEPES pH7.4, 10 mM MgCl2, 1 mM DTT, 0.01% CHAPS in a final assay volume of 12 μl. Briefly 6 μl of ALK5 protein, final concentration of 3 μg/mL, was added to each well of a 384 well assay plate containing 12 nL of each concentration of test compound dissolved in DMSO. 6 μL of a solution containing an ALK5 FP probe ((2Z)-3-(6-{4-[2-({4-[(6-chloro[1,3]dioxolo[4,5-b]pyridin-7-yl)amino]-5-(1-methylethoxy)quinazolin-7-yl}oxy)ethyl]piperazin-1-yl}-6-oxohexyl)-2-[(2E,4E)-5-(3-ethyl-1,1-dimethyl-6,8-disulfo-1H-benzo[e]indolium-2-yl)penta-2,4-dien-1-ylidene]-1,1-dimethyl-6-sulfo-2,3-dihydro-1H-benzo[e]indole-8-sulfonate), final concentration 50 nM, and ATP, final concentration 1 μM.
row,Compound,IC50
1,"Cc1ccc(Oc2ccnc(Nc3cccc(C(=O)N(C)C)c3)c2)c(C)n1 [Example 62, 3-{[4-(2,6-Dimethylpyridin-3-yl)oxypyridin-2-yl]amino}-N,N-dimethylbenzamide]",0.0535 µM
2,"CC(=O)NC1CCN(C(=O)c2cccc(Nc3cc(Oc4ccc(C)nc4C)ccn3)c2)C1 (stereo not shown) [Example 65, N-[1-(3-{[4-(2,6-Dimethylpyridin-3-yl)oxypyridin-2-yl]-amino}benzoyl)pyrrolidin-3-yl]acetamide]",0.0457 µM
3,"Cc1ccc(Oc2ccnc(Nc3cccc(C(=O)NCC(N)=O)c3)c2)c(C)n1 [Example 67, N-(2-Amino-2-oxoethyl)-3-{[4-(2,6-dimethylpyridin-3-yl)-oxypyridin-2-yl]amino}benzamide]",0.054 µM
4,"Cc1ccc(Oc2ccnc(Nc3cccc(C(=O)N4CCCC(C(N)=O)C4)c3)c2)c(C)n1 (stereo not shown) [Example 68, 1-(3-{[4-(2,6-Dimethylpyridin-3-yl)oxypyridin-2-yl]amino}-benzoyl)piperidine-3-carboxamide]",0.00895 µM
5,"Cc1cc(Oc2ccnc(Nc3cccc(C(=O)NC4CC4)c3)c2)c(-c2ccccn2)nc1C [Example 72, N-Cyclopropyl-3-{[4-(5,6-dimethyl-2-pyridin-2-ylpyridin-3-yl)-oxypyridin-2-yl]amino}benzamide]",0.0108 µM
6,"Cc1cc(Oc2ccnc(Nc3ccc(CC#N)cc3)c2)c(-c2ccccn2)nc1C [Example 74, 2-(4-{[4-(5,6-Dimethyl-2-pyridin-2-ylpyridin-3-yl)oxypyridin-2-yl]-amino}phenyl)acetonitrile]",0.00488 µM
7,"Cc1cc(Oc2ccnc(Nc3ccc(OCC(O)CNC(C)C)cc3)c2)c(-c2ccccn2)nc1C (stereo not shown) [Example 75, 1-(4-{[4-(5,6-Dimethyl-2-pyridin-2-ylpyridin-3-yl)oxypyridin-2-yl]-amino}phenoxy)-3-(propan-2-ylamino)propan-2-ol]",0.0136 µM
8,"Cc1cc(Oc2ccnc(Nc3cccc(-c4cnco4)c3)c2)c(-c2ccccn2)nc1C [Example 77, 4-(5,6-Dimethyl-2-pyridin-2-ylpyridin-3-yl)oxy-N-[3-(1.3-oxazol-5-yl)phenyl]pyridin-2-amine]",0.00862 µM
9,"Cc1cc(Oc2ccnc(Nc3cccc(CN4CCN(C)CC4)c3)c2)c(-c2ccccn2)nc1C [Example 78, 4-(5,6-Dimethyl-2-pyridin-2-ylpyridin-3-yl)oxy-N-{3-[(4-methyl-piperazin-1-yl)methyl]phenyl}pyridin-2-amine]",0.0384 µM
10,"CNS(=O)(=O)Cc1ccc(Nc2cc(Oc3cc(C)c(C)nc3-c3ccccn3)ccn2)cc1 [Example 80, 1-(4-{[4-(5,6-Dimethyl-2-pyridin-2-ylpyridin-3-yl)oxypyridin-2-yl]-amino}phenyl)-N-methylmethanesulfonamide]",0.0169 µM
11,"Cc1cc(Oc2ccnc(Nc3ccc(C(N)=O)cc3)c2)c(-c2ccccn2)nc1C [Example 81, 4-{[4-(5,6-Dimethyl-2-pyridin-2-ylpyridin-3-yl)oxypyridin-2-yl]-amino}benzamide]",0.0111 µM
12,"Cc1cc(Oc2ccnc(Nc3cc(NS(C)(=O)=O)cc(C(N)=O)c3)c2)c(-c2ccccn2)nc1C [Example 84, 3-{[4-(5,6-Dimethyl-2-pyridin-2-ylpyridin-3-yl)oxypyridin-2-yl]-amino}-5-methanesulfonamidobenzamide]",0.016 µM
13,"Cc1cc(Oc2ccnc(Nc3cc(CO)cc(S(N)(=O)=O)c3)c2)c(-c2ccccn2)nc1C [Example 87, 3-{[4-(5,6-Dimethyl-2-pyridin-2-ylpyridin-3-yl)oxypyridin-2-yl]-amino}-5-(hydroxymethyl)benzenesulfonamide]",0.0731 µM
14,"CCn1nccc1Nc1cc(Oc2ccc(C)nc2C)ccn1 [Example 88, 4-[(2,6-Dimethylpyridin-3-yl)oxy]-N-(1-ethyl-1H-pyrazol-5-yl)-pyridin-2-amine]",0.205 µM
15,"Cc1ccc(Oc2ccnc(Nc3ccc(CC#N)cc3)c2)c(C)n1 [Example 91, 2-(4-{[4-(2,6-Dimethylpyridin-3-yl)oxypyridin-2-yl]amino}phenyl)-acetonitrile]",0.0286 µM
16,"Cc1ccc(Oc2ccnc(Nc3ccc(C(N)=O)cc3)c2)c(C)n1 [Example 92, 4-{[4-(2,6-Dimethylpyridin-3-yl)oxypyridin-2-yl]amino}benzamide]",0.0694 µM

# Further lines, results first:
row,IC50,Compound
1,0.0323 µM,"3-{[4-(2,6-Dimethylpyridin-3-yl)oxypyridin-2-yl]amino}-N-(1-methylpiperidin-4-yl)benzamide [Example 70]"
2,0.0143 µM,"Cc1ccc(Oc2ccnc(Nc3cccc(C(=O)N4CC[C@H](S(C)(=O)=O)C4)c3)c2)c(C)n1 (single isomer, unassigned) [Example 138]"
3,0.0495 µM,"Cc1ccc(Oc2ccnc(Nc3cccc(C(=O)N4CC[C@@H](S(C)(=O)=O)C4)c3)c2)c(C)n1 (single isomer, unassigned) [Example 139]"
4,0.0214 µM,"Cc1ccc(Oc2ccnc(Nc3cccc(C(=O)N(C4CC4)C4CCN(C)CC4)c3)c2)c(C)n1 [Example 59, N-Cyclopropyl-3-{[4-(2,6-dimethylpyridin-3-yl)oxypyridin-2-yl]-amino}-N-(1-methylpiperidin-4-yl)benzamide]"
5,0.022 µM,"Cc1ccc(Oc2ccnc(Nc3cccc(C(=O)N(C4CCOCC4)C4CC4)c3)c2)c(C)n1 [Example 60, N-Cyclopropyl-3-{[4-(2,6-dimethylpyridin-3-yl)oxypyridin-2-yl]-amino}-N-(oxan-4-yl)benzamide]"
6,0.0227 µM,"Cc1ccc(Oc2ccnc(Nc3cccc(C(=O)N4CCC4)c3)c2)c(C)n1 [Example 61, Azetidin-1-yl-(3-{[4-(2,6-dimethylpyridin-3-yl)oxypyridin-2-yl]-amino}phenyl)methanone]"
7,0.00823 µM,"Cc1ccc(Oc2ccnc(Nc3cccc(C(=O)NCc4ncc[nH]4)c3)c2)c(C)n1 [Example 63, 3-{[4-(2,6-Dimethylpyridin-3-yl)oxypyridin-2-yl]amino}-N-(1H-imidazol-2-ylmethyl)benzamide]"
8,0.0415 µM,"Cc1ccc(Oc2ccnc(Nc3cccc(C(=O)NCc4cnccn4)c3)c2)c(C)n1 [Example 64, 3-{[4-(2,6-Dimethylpyridin-3-yl)oxypyridin-2-yl]amino}-N-(pyrazin-2-ylmethyl)benzamide]"
9,0.0185 µM,"Cc1ccc(Oc2ccnc(Nc3cccc(C(=O)N4CCC(S(C)(=O)=O)C4)c3)c2)c(C)n1 (stereo not shown) [Example 66, (3-{[4-(2,6-Dimethylpyridin-3-yl)oxypyridin-2-yl]amino}phenyl)-(3-methylsulfonylpyrrolidin-1-yl)methanone]"
10,0.0827 µM,"Cc1ccc(Oc2ccnc(Nc3cccc(C(=O)N4CCN(CC(N)=O)CC4)c3)c2)c(C)n1 [Example 69, 2-[4-(3-{[4-(2,6-Dimethylpyridin-3-yl)oxypyridin-2-yl]amino}-benzoyl)piperazin-1-yl]acetamide]"
11,0.096 µM,"Cc1ccc(Oc2ccnc(Nc3cccc(C(=O)N4CCN(C)CC4)c3)c2)c(C)n1 [Example 71, [3-{[4-(2,6-Dimethylpyridin-3-yl)oxypyridin-2-yl]amino}phenyl]-(4-methylpiperazin-1-yl)methanone]"
12,0.0148 µM,"Cc1cc(Oc2ccnc(Nc3cccc(NS(C)(=O)=O)c3)c2)c(-c2ccccn2)nc1C [Example 76, N-(3-{[4-(5,6-Dimethyl-2-pyridin-2-ylpyridin-3-yl)oxypyridin-2-yl]-amino}phenyl)methanesulfonamide]"
13,0.0396 µM,"Cc1cc(Oc2ccnc(Nc3cccc(OCCN4CCOCC4)c3)c2)c(-c2ccccn2)nc1C [Example 79, 4-(5,6-Dimethyl-2-pyridin-2-ylpyridin-3-yl)oxy-N-[3-(2-morpholin-4-ylethoxy)phenyl]pyridin-2-amine]"
14,0.0259 µM,"CC(=O)N(C)c1ccc(Nc2cc(Oc3cc(C)c(C)nc3-c3ccccn3)ccn2)cc1 [Example 83, N-(4-{[4-(5,6-Dimethyl-2-pyridin-2-ylpyridin-3-yl)oxypyridin-2-yl]-amino}phenyl)-N-methylacetamide]"
15,0.00842 µM,"CC(=O)Nc1ccc(Nc2cc(Oc3cc(C)c(C)nc3-c3ccccn3)ccn2)cc1 [Example 86, N-(4-{[4-(5,6-Dimethyl-2-pyridin-2-ylpyridin-3-yl)oxypyridin-2-yl]-amino}phenyl)acetamide]"
16,0.346 µM,"Cc1ccc(Oc2ccnc(Nc3ccc(C#N)cc3)c2)c(C)n1 [Example 89, 4-{[4-(2,6-Dimethylpyridin-3-yl)oxypyridin-2-yl]amino}-benzonitrile]"
17,0.135 µM,"COc1ccc(Nc2cc(Oc3ccc(C)nc3C)ccn2)cc1 [Example 90, 4-(2,6-Dimethylpyridin-3-yl)oxy-N-(4-methoxyphenyl)pyridin-2-amine]"
18,0.154 µM,"Cc1ccc(Oc2ccnc(Nc3ccccc3)c2)c(C(=O)NCC2CC2)n1 [Example 93, 3-(2-Anilinopyridin-4-yl)oxy-N-(cyclopropylmethyl)-6-methyl-pyridine-2-carboxamide]"
